Reference: patent publication US7935825B2, “Arylsulfanyl and heteroarylsulfanyl derivatives for treating pain” (Allergan, Inc., priority 2001, dated 2011)
Like-named read-outs stand apart in the source and are kept apart here.

Assays:
tactile allodynia = assay: Chronic pain model: spinal nerve (L5/L6) ligation, tactile allodynia measured with von Frey hairs; format: in vivo; conditions: rats
Text: A model for chronic pain (in particular peripheral neuropathy such as causalgia) involves the surgical ligation of the L5 (and optionally the L6) spinal nerves on one side in experimental animals. Rats recovering from the surgery gain weight and display a level of general activity similar to that of normal rats. However, these rats develop abnormalities of the foot, wherein the hindpaw is moderately everted and the toes are held together. More importantly, the hindpaw on the side affected by the surgery appears to become sensitive to pain from low-threshold mechanical stimuli, such as that producing a faint sensation of touch in a human, within about 1 week following surgery. This sensitivity to normally non-painful touch is called “tactile allodynia” and lasts for at least two months. The response includes lifting the affected hindpaw to escape from the stimulus, licking the paw and holding it in the air for many seconds. None of these responses is normally seen in the control group.
Rats are anesthetized before surgery. The surgical site is shaved and prepared either with betadine or Novacaine. Incision is made from the thoracic vertebra Xlll down toward the sacrum. Muscle tissue is separated from the spinal vertebra (left side) at the L4-S2 levels. The L6 vertebra is located and the transverse process is carefully removed with a small rongeur to expose the L4-L6 spinal nerves. The L5 and L6 spinal nerves are isolated and tightly ligated with 6-0 silk thread. The same procedure is done on the right side as a control, except no ligation of the spinal nerves is performed.
A complete hemostasis is confirmed, then the wounds are sutured. A small amount of antibiotic ointment is applied to the incised area, and the rat is transferred to the recovery plastic cage under a regulated heat-temperature lamp. On the day of the experiment, at least seven days after the surgery, six rats per test group are administered the test drugs by intraperitoneal (i.p.) injection or oral gavage. For i.p. injection, the compounds are formulated in approximately 50% DMSO and given in a volume of 1 ml/kg body weight. The compound of Example 7 was tested at doses ranging between 30 and 3000 ng/kg. A volume equal to 1 ml/kg body weight of an appropriate concentration (i.e.. 1 mg/ml for a 1 mg/kg dose) of the compound of Example 7 formulated in approximately 50% DMSO was injected using an 18-gauge, 3-inch gavage needle that is slowly inserted through the esophagus into the stomach.
Tactile allodynia is measured prior to and 30 minutes after drug administration using von Frey hairs that are a series of fine hairs with incremental differences in stiffness. Rats are placed in a plastic cage with a wire mesh bottom and allowed to acclimate for approximately 30 minutes. The von Frey hairs are applied perpendicularly through the mesh to the mid-plantar region of the rats' hindpaw with sufficient force to cause slight buckling and held for 6-8 seconds. The applied force has been calculated to range from 0.41 to 15.1 grams. If the paw is sharply withdrawn, it is considered a positive response. A normal animal will not respond to stimuli in this range, but a surgically ligated paw will be withdrawn in response to a 1-2 gram hair. The 50% paw withdrawal threshold is determined using the method of Dixon, W. J., Ann. Rev. Pharmacol. Toxicol. 20:441-462 (1980). The post-drug threshold is compared to the pre-drug threshold and the percent reversal of tactile sensitivity is calculated based on a normal threshold of 15.1 grams. […] Compared to a saline solution, this compound reversed the allodynic pain by 25% at an i.p. dose of 100 ng/kg, 60% at 300 ng/kg, 90% at […] and 92% at 3000 ng/kg.

receptors for PGE2 = conditions: cited from earlier work
[1] = i.p. dose of 100 ng/kg, 30 minutes after drug administration
[2] = i.p. dose of 300 ng/kg, 30 minutes after drug administration

Row | Compound | reversal of allodynic pain (percent reversal of tactile sensitivity) (tactile allodynia; i.p. dose of 30 ng/kg, 30 minutes after drug administration) [%] | reversal of allodynic pain (percent reversal of tactile sensitivity) (tactile allodynia; [1]) [%] | reversal of allodynic pain (percent reversal of tactile sensitivity) (tactile allodynia; [2]) [%] | reversal of allodynic pain (percent reversal of tactile sensitivity) (tactile allodynia; i.p., dose figure not printed ("at ng/kg")) [%] | effect on PGE2 action in tissue (receptors for PGE2; cat trachea or chick ileum) | effect on PGE2 action in tissue (receptors for PGE2; guinea pig ileum or dog fundus) | response to the tactile stimuli that indicate tactile allodynia (tactile allodynia; doses between 30 and 3000 ng/kg) | reversal of allodynic pain (percent reversal of tactile sensitivity) (tactile allodynia; i.p. dose of 3000 ng/kg, 30 minutes after drug administration) [%] | reversal of allodynic pain (percent reversal of tactile sensitivity) (tactile allodynia; i.p. dose printed as 100 mg/kg, 30 minutes after drug administration) [%]
1 | CCN(Cc1cc(Br)ccc1OCc1ccccc1)c1ccc(C(=O)O)cn1 [6-[(2-Benzyloxy-5-bromobenzyl)ethylamino]nicotinic acid] | 10 | 50 | 55 | 60 |  |  |  |  | 
2 | CC(=O)NNC(=O)N1Cc2ccccc2Oc2ccc(Cl)cc21 [SC-19220] |  |  |  |  | not on other tissues | blocks the effect of PGE2 |  |  | 
3 | CCN(Cc1ccccc1SCc1ccccc1)c1ccc(C(=O)O)cn1 [Example 7, 6-[(2-Benzylsulfanylbenzyl)ethylamino]nicotinic acid] |  | 25 | 60 |  |  |  | able to reduce the response to the tactile stimuli | 92 | 90
